Measurements from patent publication US20210087238A1, “CELL PENETRATING PEPTIDES AND RELATED COMPOSITIONS AND METHODS” (Phylogica Limited, priority 2017, published 2021).
Read-outs that look alike come from different tables or passages of the source. Where a SMILES comes first, the peptide text is derived from it. Where no end group is shown, it is not given here. [ ]: non-standard residue; d: D form.

Legend:
CHO-K1 cells [1] = settings: up to 50 μM; for cytotoxicity of peptides alone, cell viability: 24 h and 48 h incubation; for cytotoxicity of peptides alone, LDH release (membrane integrity): 2 h and 24 h incubation
Protocol: Cell viability effect on CHO-K1 cells of Phylomer™ CPPs and variants compared to the canonical CPPs TAT and Penetratin following 24 h (A) and 48 h (B) incubation with peptides. Cell viability was assessed by resazurin reduction potential. Membrane integrity of CHO-K1 cells were assessed by LDH release following 2 h (C) and 24 h (D) incubation with peptides. […] Results are representative of 3 independent experiments. Error bars represent standard deviation from the mean of triplicate samples.
(§1) Cells in were seeded at 2000-6000 cells/well, depending on cell line, in 96-well plates (PAP assays: CHO-K1, 3000 cells/well; peptide cytotoxicity assays: CHO-K1, 5000 cells/well; Bouganin assay: CHO-K1 and CHO-K1 EGFR, 2500 cells/well; ^DPMIα assays: T47D, 5000 cells/well; Omomyc assays: all cell lines, 5000 cells/well). In brief, adherent cells were allowed to attach for 24 h prior to addition of treatments whereas suspension cell lines were treated immediately following seeding. Following 2-48 h incubations with treatments, cell viability was measure by a variety of methods. Membrane integrity was assessed by the release of LDH into the media via the CytoTox-ONE reagent (Promega). Metabolic activity was measured either by resazurin reduction potential using PrestoBlue (LifeTech) or ATP activity using CellTitre-Glo (Promega). All assays followed manufacturer's instructions. IC50 values were calculated using Prism (version 7.0a, GraphPad).
When delivering therapeutics into a cell, it is critical that the delivery molecule itself is not cytotoxic. To assess innate cytotoxicity we tested the effects of FPPs alone on cell viability at 24 h (FIG. 6A) and 48 h (FIG. 6B) after addition of peptides. The effects of FPPs on membrane stability of cells was also assessed in a LDH enzymatic assay, measuring release of LDH from cells into surrounding media at 2 h (FIG. 6C) and 24 h (FIG. 6D) after treatment with peptides.

T47D cells [2] = assay: Cell viability assay of FPP1.1_SpyT variants conjugated to SpyC_PAP, resazurin reduction; format: cell-based; settings: 48 h incubation, FIG. 5
Protocol: Cell viability assay on T47D cells of FPP1.1_SpyT peptide compared to retro-inverso (RI) and dimerised variants conjugated to the SpyCatcher_PAP (SpyC_PAP) mitochondriotoxic cargo. T47D cells were seeded at 6×10^3 cells per well and treated the following day with FPP-Toxic cargo conjugates. Following 48 h incubation cell viability was assessed by resazurin reduction potential.
(§2) With the exception of SpyC PAS proteins, conjugations were set up at a SpyCatcher:SpyTag ratio of 1:1.25, with a 40 μM final concentration for the SpyCatcher moiety. SpyC proteins and SpyTag peptides were incubated for 2 h at 22° C. with gentle mixing, and then left at 4° C. overnight. Conjugation efficiencies were analyzed on 4-16% SDS-PAGE gels stained with Gel Code Blue Reagent (Thermo Fisher Scientific). SpyC_PAS proteins were conjugated with SpyTag peptides at ratio 1:1.1, mixed and incubated at room temperature for 30 mins before being stored overnight at 4° C.
(§3) All assays followed manufacturer's instructions.

T47D cells [3] = settings: for IC50: 48 h; for delivery of DPMIα, comparison of 10 μM peptide treatments: FIG. 8B, one-way ANOVA; for effect on T47D cell viability of CPP-delivered DPMIα: 48 h incubation, FIG. 8A
Protocol: Cell viability was assessed by resazurin reduction potential after 48 h incubation with peptides. […] Results are representative of 3 independent experiments.
as §1
^DPMIα is a small peptide (SEQ ID NO:105), which when conjugated to cationic CPPs can internalize into cells, bind to MDM2 (acting as a dominant negative peptide) and lift p53 suppression causing indiscriminate cytotoxicity (Liu, supra).

CHO-K1 cells [4] = assay: PAP cell viability assay: SpyC_PAP conjugated to CPP_SpyT, resazurin reduction; format: cell-based; settings: for cell death caused by SpyC-PAP conjugate: compared to TAT or Penetratin-delivered SpyC_PAP
Protocol: as §2, §3
SpyC-PAP/CPP-SpyT complex IC50s were ranked according to potency to determine impact of changes to primary CPP sequence. Sequence variations positively impacting on potency are retained for further optimization, whereas sequence variations deleterious to potency are excluded, thus establishing sequence activity relationships for the CPP peptide. SpyC_BLA/CPP-SpyT complex median cell fluorescence at 4 μM concentration was ranked according to intensity to determine impact of changes to primary CPP sequence. Sequence variations positively impacting on intensity were retained for further optimization, whereas sequence variations deleterious to intensity were excluded, thus establishing sequence activity relationships for the CPP peptide.
For the first readout of functional activity we chose the proapoptotic peptide PAP (SEQ ID NO:61; Ellerby et al 1999, Nat Med, 5, 1032-1038) as a functional cargo and expressed it recombinantly, fused to SpyCatcher (SEQ ID NO:83) (abbreviated as “SpyC_PAP” or “SpyC-PAP”; SEQ ID NO:62) to enable subsequent conjugation with synthetic CPP-SpyTag fusion proteins. Mammalian cells were incubated with SpyC_PAP-CPP protein conjugates, which induce apoptosis if successfully delivered into cells. […] As a representative member of the largest cluster of sequences from the screen, FPP1 was selected for additional optimization studies.

[5] = PAP assay, variant_SpyT/SpyC_PAP

C[C@@H](O)[C@H](NC(=O)[C@H](CCCCN)NC(=O)[C@@H]1CCCN1C(=O)[C@H](CCCCN)NC(=O)[C@H](CCCCN)NC(=O)[C@@H]1CCCN1C(=O)[C@H](CCCCN)NC(=O)[C@@H]1CCCN1C(=O)[C@@H]1CCCN1C(=O)[C@H](CCC(N)=O)NC(=O)[C@H](CCCCN)NC(=O)[C@H](CCCCN)NC(=O)[C@H](CCCCN)NC(=O)[C@@H](N)CCCCN)C(=O)N[C@@H](CCC(N)=O)C(=O)N[C@@H](CCC(=O)O)C(=O)N[C@@H](CCCCN)C(=O)N[C@@H](CCCCN)C(=O)N[C@@H](CCCCN)C(=O)N[C@@H](CCCCN)C(=O)N[C@@H](CCC(N)=O)C(=O)N1CCC[C@H]1C(=O)N1CCC[C@H]1C(=O)N[C@@H](CCCCN)C(=O)N1CCC[C@H]1C(=O)N[C@@H](CCCCN)C(=O)N[C@@H](CCCNC(=N)N)C(=O)O [FPP1.1] (H-KKKKQPPKPKKPKTQEKKKKQPPKPKR-OH)
cytotoxicity of peptides alone, cell viability (CHO-K1 cells [1]): lack of cytotoxicity
IC50 (T47D cells [2]): 8.7 µM

CC[C@H](C)[C@H](NC(=O)[C@H](CCCCN)NC(=O)[C@@H](NC(=O)[C@H](CCC(N)=O)NC(=O)[C@@H](N)CCCNC(=N)N)[C@@H](C)CC)C(=O)N[C@@H](Cc1c[nH]c2ccccc12)C(=O)N[C@@H](Cc1ccccc1)C(=O)N[C@@H](CCC(N)=O)C(=O)N[C@@H](CC(N)=O)C(=O)N[C@@H](CCCNC(=N)N)C(=O)N[C@@H](CCCNC(=N)N)C(=O)N[C@@H](CCSC)C(=O)N[C@@H](CCCCN)C(=O)N[C@@H](Cc1c[nH]c2ccccc12)C(=O)N[C@@H](CCCCN)C(=O)N[C@@H](CCCCN)C(=O)NCC(=O)N[C@@H](C)C(=O)N[C@@H](CO)C(=O)N[C@@H](C)C(=O)N[C@@H](Cc1c[nH]cn1)C(=O)N[C@H](C(=O)N[C@H](C(=O)N[C@@H](CCSC)C(=O)N[C@H](C(=O)N[C@@H](CC(=O)O)C(=O)N[C@@H](C)C(=O)N[C@@H](Cc1ccc(O)cc1)C(=O)N[C@@H](CCCCN)C(=O)N1CCC[C@H]1C(=O)N[C@H](C(=O)N[C@@H](CCCCN)C(=O)NCC(=O)O)[C@@H](C)O)C(C)C)C(C)C)[C@@H](C)CC [Penetratin CPP-SpyTag fusion]
cytotoxicity of peptides alone, cell viability (CHO-K1 cells [1]): some inconsistent cytotoxicity at the highest concentrations

CC[C@H](C)[C@H](NC(=O)[C@H](Cc1c[nH]cn1)NC(=O)[C@H](C)NC(=O)[C@H](CO)NC(=O)[C@H](C)NC(=O)CNC(=O)[C@H](CCCNC(=N)N)NC(=O)[C@H](CCCNC(=N)N)NC(=O)[C@H](CCCNC(=N)N)NC(=O)[C@H](CCC(N)=O)NC(=O)[C@H](CCCNC(=N)N)NC(=O)[C@H](CCCNC(=N)N)NC(=O)[C@H](CCCCN)NC(=O)[C@H](CCCCN)NC(=O)[C@H](CCCNC(=N)N)NC(=O)CN)C(=O)N[C@H](C(=O)N[C@@H](CCSC)C(=O)N[C@H](C(=O)N[C@@H](CC(=O)O)C(=O)N[C@@H](C)C(=O)N[C@@H](Cc1ccc(O)cc1)C(=O)N[C@@H](CCCCN)C(=O)N1CCC[C@H]1C(=O)N[C@H](C(=O)N[C@@H](CCCCN)C(=O)NCC(=O)O)[C@@H](C)O)C(C)C)C(C)C [TAT-SpyTag fusion]
cytotoxicity of peptides alone, LDH release (membrane integrity) (CHO-K1 cells [1]): no cytotoxic activity
cytotoxicity of peptides alone, cell viability (CHO-K1 cells [1]): no cytotoxic activity

CC(C)C[C@@H](NC(=O)[C@@H](CC(C)C)NC(=O)[C@@H](CCCCN)NC(=O)[C@@H](CCC(=O)O)NC(=O)[C@@H](CC(C)C)NC(=O)[C@@H](CC(N)=O)NC(=O)[C@@H](C)NC(=O)[C@@H](Cc1ccc(O)cc1)NC(=O)[C@@H](Cc1c[nH]c2ccccc12)NC(=O)[C@@H](CC(N)=O)NC(=O)[C@H](NC(=O)[C@H](CO)NC(=O)[C@H](C)NC(=O)CNC(=O)[C@H](CCCNC(=N)N)NC(=O)[C@H](CCCNC(=N)N)NC(=O)[C@H](CCCNC(=N)N)NC(=O)[C@H](CCC(N)=O)NC(=O)[C@H](CCCNC(=N)N)NC(=O)[C@H](CCCNC(=N)N)NC(=O)[C@H](CCCCN)NC(=O)[C@H](CCCCN)NC(=O)[C@H](CCCNC(=N)N)NC(=O)CN)[C@H](C)O)C(=O)N[C@H](CCCNC(=N)N)C(=O)O [TAT_^DPMIα, GRKKRRQRRRGAStnwyanlekllr, reference compound] (H-GRKKRRQRRRGAS[dT][dN][dW][dY][dA][dN][dL][dE][dK][dL][dL][dR]-OH; N-terminus and C-terminus assumed)
IC50 (T47D cells [3]): 36.6 µM

GRKKRRQRRR (Amino acid sequence of TAT CPP) [reference compound]
cytotoxicity of peptides alone, LDH release (membrane integrity) (CHO-K1 cells [1]): non-toxic
cytotoxicity of peptides alone, cell viability (CHO-K1 cells [1]): non-toxic
delivery of DPMIα, comparison of 10 μM peptide treatments (T47D cells [3]): significantly improved compared to DPMIα peptide alone

KKKKQPPKPKKPKTQEKKKKQPPKPKRGASAHIVMVDAYKPTKGASKKKKQPPKPKKPKTQEKKKKQPPKPKR [dimerised FPP1.1]
IC50 (T47D cells [2]): 6.3 µM

KKQPPKPKKPKTQEKKKKQPPKPKR (Amino acid sequence of a Sindbis virus capsid-derived CPP (SAR5)) [FPP1-SAR5]
loss/reduction of activity (potency) relative to parental FPP1 (CHO-K1 cells [4]; [5]): 3 fold

KTQEKKKKQTTKTKKTKTQEKKKKQTTKTKR (Amino acid sequence of a Sindbis virus capsid-derived CPP (1746P_T)) [FPP1-P_T]
effect of truncation or mutation on CPP potency (CHO-K1 cells [4]; PAP assay, relative to parental FPP1): unaffected

PLKPKKPKTQEKKKKQPPKPKKPKTQEKKKKQPPKPK (Amino acid sequence of a Sindbis virus capsid-derived CPP (SAR12)) [FPP1-SAR12]
loss/reduction of activity (potency) relative to parental FPP1 (CHO-K1 cells [4]; [5]): approximately 2.2 fold

PLKPKKPKTQEKKKKQPPKPKKPKTQEKKKKQPPKPKR (Amino acid sequence of a Sindbis virus capsid-derived CPP (SVC27)) [FPP1]
potency of FPP-delivered PAP conjugate (decrease in CHO-K1 cell viability), order of potency (CHO-K1 cells [4]; CPP_SpyT conjugated to SpyC_PAP, resazurin, FIG. 4A): greatest potency
cell death caused by SpyC-PAP conjugate (CHO-K1 cells [4]; FIG. 4A): significant cell death
delivery of DPMIα, comparison of 10 μM peptide treatments (T47D cells [3]): significantly improved delivery compared to TAT
effect on T47D cell viability of CPP-delivered DPMIα (T47D cells [3]): dose dependent decrease in T47D cell viability

PLKPKKPKTQEKKKKQPPKPKKPKTQEKKKKQPPKPKRGAS[dT][dN][dW][dY][dA][dN][dL][dE][dK][dL][dL][dR] [FPP1_^DPMIα]
IC50 (T47D cells [3]): 9.1 µM
effect on T47D cell viability of CPP-delivered DPMIα (T47D cells [3]): significantly more cytotoxic than ^DPMIα alone

PLRPRRPRTQERRRRQPPRPRRPRTQERRRRQPPRPRR (Amino acid sequence of a Sindbis virus capsid-derived CPP (SAR 17)) [FPP1-SAR17]
loss/reduction of activity (potency) relative to parental FPP1 (CHO-K1 cells [4]; [5]): 1.5 fold

SpyC only control: SpyCatcher control without CPP [reference compound]
cell death caused by SpyC-PAP conjugate (CHO-K1 cells [4]; FIG. 4A): no effect

TLKTKKTKTQEKKKKQTTKTKKTKTQEKKKKQTTKTKR (Amino acid sequence of a Sindbis virus capsid-derived CPP (SAR16 P_T)) [FPP1-SAR16]
improvement of activity relative to full length FPP1 (CHO-K1 cells [4]; [5]): 1.7 fold
